Data as given in patent US9732094B2, “Arylquinazolines” (Merck Patent GmbH, priority 2013, dated 2017).
Read-outs that look alike come from different tables or passages of the source.

What was measured:
[1] = target: DNA-PK (Homo sapiens (Human), UniProt P78527); test: DNA-PK assay (biochemical), flashplate 33P-ATP kinase assay; details: biochemical DNA-PK assay
In short: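 Reactions ran in streptavidin-coated flashplates and were halted by 200 mM EDTA, with a further 30 min at room temperature before saline washing.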

[2] = target: DNA-PK phosphorylation at serine 2056 (Homo sapiens (Human), UniProt P78527); test: DNA-PK phosphorylation at serine 2056 (cellular), bleomycin-treated HCT116 cells, ELISA; type: cell-based; details: cellular DNA-PK phosphorylation at serine 2056, HCT116; read-out: IC50 pDNA-PK
In short: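 HCT116 cells grown overnight were co-treated with 10 μM bleomycin and test compound for 6 h at 37 °C. Phospho-DNA-PK was quantified by chemiluminescent ELISA and normalised to total DNA-PKcs signal, with DMSO control as blank.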

[3] = target: Kv11.1 (hERG) (Homo sapiens (Human), UniProt Q12809); test: Kv11.1 (hERG) ion channel activity (patch clamp assay), HEK293 cells transfected with hERG gene; details: hERG patch clamp assay (cells without asterisk)
Chain of Kv11.1 (hERG) (Q12809 whole entry): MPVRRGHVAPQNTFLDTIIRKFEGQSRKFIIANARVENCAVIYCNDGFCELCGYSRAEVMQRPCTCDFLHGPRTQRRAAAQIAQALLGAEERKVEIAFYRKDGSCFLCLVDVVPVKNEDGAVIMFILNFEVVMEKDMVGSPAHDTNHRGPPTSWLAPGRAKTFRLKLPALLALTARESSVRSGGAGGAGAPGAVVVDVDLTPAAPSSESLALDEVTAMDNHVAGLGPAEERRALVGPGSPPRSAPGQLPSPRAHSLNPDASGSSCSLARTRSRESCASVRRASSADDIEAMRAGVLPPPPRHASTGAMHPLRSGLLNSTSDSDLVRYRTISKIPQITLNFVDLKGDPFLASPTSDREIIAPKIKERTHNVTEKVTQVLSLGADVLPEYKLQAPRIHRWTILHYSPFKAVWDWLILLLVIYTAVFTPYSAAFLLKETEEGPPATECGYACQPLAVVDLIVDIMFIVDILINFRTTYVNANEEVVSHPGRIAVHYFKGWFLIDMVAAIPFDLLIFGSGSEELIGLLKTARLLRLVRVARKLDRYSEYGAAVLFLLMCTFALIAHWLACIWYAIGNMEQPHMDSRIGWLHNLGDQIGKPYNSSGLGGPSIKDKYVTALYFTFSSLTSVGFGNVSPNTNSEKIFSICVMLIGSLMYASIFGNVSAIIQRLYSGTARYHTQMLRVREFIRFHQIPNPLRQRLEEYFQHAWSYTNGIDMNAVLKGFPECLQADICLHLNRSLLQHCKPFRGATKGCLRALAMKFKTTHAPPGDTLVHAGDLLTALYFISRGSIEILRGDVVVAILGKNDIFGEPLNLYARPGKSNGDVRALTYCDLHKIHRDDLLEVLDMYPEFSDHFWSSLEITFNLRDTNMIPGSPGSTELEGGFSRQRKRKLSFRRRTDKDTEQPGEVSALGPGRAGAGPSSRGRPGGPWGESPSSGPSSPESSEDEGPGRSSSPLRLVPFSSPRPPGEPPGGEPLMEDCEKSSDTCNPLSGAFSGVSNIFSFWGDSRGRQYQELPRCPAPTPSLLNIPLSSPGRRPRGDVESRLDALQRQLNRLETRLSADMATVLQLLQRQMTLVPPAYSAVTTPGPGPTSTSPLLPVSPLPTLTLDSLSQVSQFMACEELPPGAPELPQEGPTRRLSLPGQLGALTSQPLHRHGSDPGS
Experimental: C) Kv11.1 (hERG) Ion Channel Activity (Patch Clamp Assay)
The patch-clamp measurement was carried out at room temperature in whole-cell configuration on human embryonic kidney cells (HEK293) which have been transfected in a stable manner with the hERG gene.
The whole-cell configurations were carried out using an automated patch clamp device (Patchliner™, Nanion Technologies, Munich). […] The glass chip has a hole of defined size to which the cell is transferred into the Gigaseal by application of a reduced pressure and brought into the whole-cell configuration. Buffer, cell suspension and test substances were added to microchannels of the chip using a Teflon-coated pipette. The cells were clamped to a holding potential of −80 mV. For measurement of substance-promoted inhibition of the Kv11.1 channel, the following voltage protocol was applied at 10-second intervals: 51 ms/−80 mV, 500 ms/+40 mV, 500 ms/−40 mV, 200 ms/−80 mV. The leakage current is subtracted by means of the P4 method. The cells were resuspended in extracellular buffer (EC) and applied to the chip. After the cell had been collected, the seal was improved by addition of a seal enhancer buffer. As soon as the whole-cell configuration had been reached, the seal enhancer buffer was washed out and replaced by extracellular buffer. The measurement started in EC for 1.5 min. DMSO (vehicle control, 0.1% of DMSO) was then applied, and the control current was recorded for 3 min. The test substance was subsequently added twice in the same concentration, and the potassium current was measured for 3.5 min in each case.
The reference substance used was the Kv11.1 (hERG) ion channel blocker quinidine. The effects of test substances and quinidine were standardised to the associated vehicle control. The effect on the Kv11.1 (hERG) channel activity was assessed from the potassium current at −40 mV. For the calculation, the current was evaluated for the respective final trace.
During the measurement, an aliquot of the test substance was taken for concentration determination. The sample was measured immediately by HPLC, and the final concentration was determined from a calibration curve.

SMILES	IC50 [1] [µM]	IC50 [2] [µM]	Ki ([3]; read-out: Ki [Kv1.11 hERG]) [µM]	Ki ([3]; Ki [Kv1.11 hERG]) [µM]
COc1nnccc1C(C(N)=O)c1cc(-c2ncnc3cc(N4CCOCC4)ccc23)c(F)cc1Cl (stereo not drawn) [Example 307, 2-[2-Chloro-4-fluoro-5-(7-morpholin-4-yl-quinazolin-4-yl)-phenyl]-2-(3-methoxypyridazin-4-yl)acetamide]	0.003 to 0.007	5 to 10	> 25	–
COc1ccc(C(C(N)=O)c2ccc(F)c(-c3ncnc4cc(N5CCOCC5)ccc34)c2)nn1 (stereo not drawn) [Example 308, 2-[4-Fluoro-3-(7-morpholin-4-yl-quinazolin-4-yl)-phenyl]-2-(6-methoxypyridazin-3-yl)acetamide]	0.007 to 0.03	10 to 30	> 25	–
COc1ccc(C(C(N)=O)c2cc(-c3ncnc4cc(N5CCOCC5)ccc34)ccc2Cl)nn1 (stereo not drawn) [Example 310, 2-[2-Chloro-5-(7-morpholin-4-yl-quinazolin-4-yl)-phenyl]-2-(6-methoxy-pyridazin-3-yl)acetamide]	> 0.03	10 to 30	–	15 to 25
NC(=O)C(c1ccc(F)c(-c2ncnc3cc(N4CCOCC4)ccc23)c1)c1ncccc1Cl (stereo not drawn) [Example 313, 2-(3-Chloro-pyridin-2-yl)-2-[4-fluoro-3-(7-morpholin-4-yl-quinazolin-4-yl)-phenyl]acetamide]	0.007 to 0.03	5 to 10	–	15 to 25
Cc1cnc(C(C(N)=O)c2ccc(F)c(-c3ncnc4cc(N5CCOCC5)ccc34)c2)c(C)n1 (stereo not drawn) [Example 318, 2-(3,5-Dimethyl-pyrazin-2-yl)-2-[4-fluoro-3-(7-morpholin-4-yl-quinazolin-4-yl)-phenyl]acetamide]	0.007 to 0.03	10 to 30	> 25	–
COc1nccnc1C(C(N)=O)c1cc(-c2ncnc3cc(N4CCOCC4)ccc23)c(F)cc1F (stereo not drawn) [Example 319, 2-[2,4-Difluoro-5-(7-morpholin-4-ylquinazolin-4-yl)phenyl]-2-(3-methoxypyrazin-2-yl)acetamide]	0.007 to 0.03	5 to 10	> 25	–
NC(=O)C(c1ccc(F)c(-c2ncnc3cc(N4CCOCC4)ccc23)c1)c1c(F)cncc1F (stereo not drawn) [Example 321, 2-(3,5-Difluoro-pyridin-4-yl)-2-[4-fluoro-3-(7-morpholin-4-yl-quinazolin-4-yl)-phenyl]acetamide]	0.007 to 0.03	0.5 to 5	–	15 to 25
NC(=O)C(c1ccc(F)c(-c2ncnc3cc(N4CCOCC4)ccc23)c1)c1cncc(F)c1Cl (stereo not drawn) [Example 322, 2-(4-Chloro-5-fluoro-pyridin-3-yl)-2-[4-fluoro-3-(7-morpholin-4-yl-quinazolin-4-yl)-phenyl]acetamide]	0.003 to 0.007	0.5 to 5	–	10 to 15
NC(=O)C(c1ccc2nccn2n1)c1cc(-c2ncnc3cc(N4CCOCC4)ccc23)c(F)cc1Cl (stereo not drawn) [Example 323, 2-[2-Chloro-4-fluoro-5-(7-morpholin-4-yl-quinazolin-4-yl)-phenyl]-2-imidazo-[1,2-b]pyridazin-6-yl-acetamide]	0.003 to 0.007	0.5 to 5	–	15 to 25
Cc1nccnc1C(C(N)=O)c1cc(-c2ncnc3cc(N4CCOCC4)ccc23)c(F)cc1Cl (stereo not drawn) [Example 324, 2-[2-Chloro-4-fluoro-5-(7-morpholin-4-yl-quinazolin-4-yl)-phenyl]-2-(3-methyl-pyrazin-2-yl)-acetamide]	0.003 to 0.007	0.5 to 5	> 25	–
COc1ccc(C(C(N)=O)c2cc(-c3ncnc4cc(N5CCOCC5)ccc34)c(F)cc2Cl)nn1 (stereo not drawn) [Example 325, 2-[2-Chloro-4-f1uoro-5-(7-morpholin-4-yl-quinazolin-4-yl)-phenyl]-2-(6-methoxypyridazin-3-yl)acetamide]	> 0.03	10 to 30	–	15 to 25
Cn1nc(C(O)c2ccc(F)c(-c3ncnc4cc(N5CCOCC5)ccc34)c2)ccc1=O (stereo not drawn) [Example 326, 6-{[4-Fluoro-3-(7-morpholin-4-yl-quinazolin-4-yl)-phenyl]hydroxy-methyl}-2-methyl-2H-pyridazin-3-one]	0.007 to 0.03	0.5 to 5	> 25	–
OC(c1ccc(F)c(-c2ncnc3cc(N4CCOCC4)ccc23)c1)c1nccc2ccoc12 (stereo not drawn) [Example 328, [4-Fluoro-3-(7-morpholin-4-yl-quinazolin-4-yl)-phenyl)furo[2,3-c]-pyridin-7-ylmethanol]	< 0.003	< 0.5	< 10	–

Continued, in another order:

IC50 [1] [µM]	IC50 [2] [µM]	SMILES	Ki ([3]; read-out: Ki [Kv1.11 hERG]) [µM]	Ki ([3]; Ki [Kv1.11 hERG]) [µM]
0.007 to 0.03	10 to 30	COc1ccc(C(C(N)=O)c2cc(-c3ncnc4cc(N5CCOCC5)ccc34)c(F)cc2F)nn1 (stereo not drawn) [Example 306, 2-[2,4-Difluoro-5-(7-morpholin-4-yl-quinazolin-4-yl)-phenyl]-2-(6-methoxy-pyridazin-3-yl)acetamide]	> 25	–
> 0.03	10 to 30	Cn1nc(C(C(N)=O)c2cc(-c3ncnc4cc(N5CCOCC5)ccc34)c(F)cc2Cl)ccc1=O (stereo not drawn) [Example 311, 2-[2-Chloro-4-fluoro-5-(7-morpholin-4-yl-quinazolin-4-yl)-phenyl]-2-(1-methyl-6-oxo-1,6-dihydro-pyridazin-3-yl)-acetamide]	> 25	–
> 0.03	10 to 30	Cn1c(C(C(N)=O)c2cc(-c3ncnc4cc(N5CCOCC5)ccc34)c(F)cc2Cl)cccc1=O (stereo not drawn) [Example 312, 2-[2-Chloro-4-fluoro-5-(7-morpholin-4-yl-quinazolin-4-yl)-phenyl]-2-(1-methyl-6-oxo-1,6-dihydro-pyridin-2-yl)-acetamide]	> 25	–
0.007 to 0.03	0.5 to 5	Cc1ncc(C(O)c2ccc(F)c(-c3ncnc4cc(N5CCOCC5)ccc34)c2)nc1C (stereo not drawn) [Example 314, (5,6-Dimethyl-pyrazin-2-yl)-[4-fluoro-3-(7-morpholin-4-yl-quinazolin-4-yl)-phenyl]methanol]	–	15 to 25
> 0.03	10 to 30	NC(=O)C(c1cc(-c2ncnc3cc(N4CCOCC4)ccc23)ccc1Cl)c1nccnc1Cl (stereo not drawn) [Example 315, 2-[2-Chloro-5-(7-morpholin-4-yl-quinazolin-4-yl)-phenyl]-2-(3-chloro-pyrazin-2-yl)-acetamide]	–	10 to 15
> 0.03	10 to 30	Cn1nc(C(C(N)=O)c2ccc(F)c(-c3ncnc4cc(N5CCOCC5)ccc34)c2)ccc1=O (stereo not drawn) [Example 317, 2-[4-Fluoro-3-(7-morpholin-4-yl-quinazolin-4-yl)-phenyl]-2-(1-methyl-6-oxo-1,6-dihydro-pyridazin-3-yl)-acetamide]	–	15 to 25
0.007 to 0.03	0.5 to 5	COc1nccnc1C(C(N)=O)c1cc(-c2ncnc3cc(N4CCOCC4)ccc23)c(F)cc1Cl (stereo not drawn) [Example 320, 2-[2-Chloro-4-fluoro-5-(7-morpholin-4-yl-quinazolin-4-yl)-phenyl]-2-(3-methoxy-pyrazin-2-yl)acetamide]	> 25	–
0.007 to 0.03	10 to 30	Cc1nccnc1C(C(N)=O)c1ccc(F)c(-c2ncnc3cc(N4CCOCC4)ccc23)c1 (stereo not drawn) [Example 327, 2-[4-Fluoro-3-(7-morpholin-4-yl-quinazolin-4-yl)-phenyl]-2-{3-methyl-pyrazin-2-yl)-acetamide]	> 25	–
0.007 to 0.03	5 to 10	Cc1nccnc1C(C(N)=O)c1cc(-c2ncnc3cc(N4CCOCC4)ccc23)c(F)cc1F (stereo not drawn) [Example 329, 2-[2,4-Difluoro-5-(7-morpholin-4-yl-quinazolin-4-yl)-phenyl]-2-(3-methyl-pyrazin-2-yl)-acetamide]	> 25	–
